Where two headings read alike, the source gives them in different places.
Assays:
hCB1R [1] = biological target: T1, hCB1R (Homo sapiens, UniProt P21554); experiment: cell-based
T1 construct: host or cells: CHO

hCB1R [2] = biological target: T1, hCB1R; experiment: cell-based; type: cell-based
hABHD12 = biological target: T2, hABHD12 (Homo sapiens, UniProt Q8N2K0); experiment: ABHD12 activity; type: biochemical; settings: for ABHD12 % inhibition: single point, 10 5 µM [sic]
T2 construct: expressed in transfected cells
T2 sequence (Q8N2K0 1-398): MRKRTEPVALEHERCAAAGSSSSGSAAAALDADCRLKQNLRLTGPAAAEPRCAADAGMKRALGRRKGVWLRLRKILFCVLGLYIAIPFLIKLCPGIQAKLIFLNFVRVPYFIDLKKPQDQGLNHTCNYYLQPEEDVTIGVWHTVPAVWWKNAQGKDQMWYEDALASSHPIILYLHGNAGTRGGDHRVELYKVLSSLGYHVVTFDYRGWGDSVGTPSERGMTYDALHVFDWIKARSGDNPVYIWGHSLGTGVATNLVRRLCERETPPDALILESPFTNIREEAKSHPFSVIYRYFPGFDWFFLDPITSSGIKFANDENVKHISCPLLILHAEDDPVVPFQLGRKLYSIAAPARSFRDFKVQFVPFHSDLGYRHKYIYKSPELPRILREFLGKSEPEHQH
Description: HEK293T cells were obtained from American Type Culture Collection (ATCC, Manassas, VA, USA). Lipofectamine 2000 was obtained from Life Technologies (Carlsbad, CA, USA) and geneticin from InvivoGen. Cell culture medium, FBS, and cell culture supplements were from Invitrogen (Carlsbad, CA, USA). pCMV6-AC-hABHD6 and pCMV6-XL4-hABHD12 were a kind gift from Prof Jarmo T. Laitinen. hABHD12 sequence was subsequently inserted in a pcDNA3.1 plasmid in order to generate a stable cell line. The effect of CB2R ligands on ABHD6 and ABHD12 hydrolytic activity was determined using cell homogenate from hABHD6 and hABHD12 overexpressing HEK293T cells (40 μg total protein per condition). Samples were pre-incubated with the compounds (10 μM in the screening assay and concentrations in the range 1 nM—50 μM for the dose-response curves) in […] (pH=7.6) buffer containing 0.1%(w/v) BSA. DMSO was used as vehicle control and WWL70 10 μM or THL 20 μM as positive controls. [^3H]-2-OG (10 μM final concentration) was added and after incubation of 5 min at 37 °C, the reaction was stopped by the addition of 400 μl of ice-cold CHCl3:MeOH (1:1). The samples were vortex and centrifuged (16,100g 10 min 4 °C). Aliquots (200 μl) of the aqueous phase were assayed for tritium content by liquid scintillation spectroscopy. The values obtained for each measurement were corrected for non-specific hydrolysis (non-ABHD6 mediated) by subtracting the signal obtained in the hydrolysis of [^3H]- 2-OG by non-transfected HEK293T.

[3] = test system: AEA cellular uptake in U937 cells; experiment: cells; type: cell-based, human; settings: for AEA reuptake Efficacy (% inhibition) U937 cells: from dose-response; for IC50: read-out: AEA reuptake IC50 (95% CI) U937 cells
Rat recombinant TRPM8 = biological target: T3, Rat recombinant TRPM8 (Rattus norvegicus, UniProt Q8R455); experiment: TRP channel [Ca2+]i assay; type: cell-based; settings: read-out: TRPM8 IC50 for antagonism of icilin
T3 construct: expressed in transfected cells; host or cells: HEK293 (TRPM8-HEK-293, gift from Mario van der Stelt)

Rat recombinant TRPV4 = biological target: T4, Rat recombinant TRPV4 (Rattus norvegicus, UniProt Q9ERZ8); experiment: cell-based; type: cell-based; settings: for IC50: vs 4αPDD 1μM, read-out: TRPV4 IC50 for desensitization
T4 construct: expressed in transfected cells; host or cells: HEK293 (TRPV4-HEK-293, gift from HB Bradshaw, Indiana University)

alpha 1A (h) = biological target: T5, alpha 1A (h) (Homo sapiens, UniProt P35348); experiment: CEREP panel; type: binding; settings: 10 µM
T5 construct: CEREP
T5 sequence (P35348 1-466): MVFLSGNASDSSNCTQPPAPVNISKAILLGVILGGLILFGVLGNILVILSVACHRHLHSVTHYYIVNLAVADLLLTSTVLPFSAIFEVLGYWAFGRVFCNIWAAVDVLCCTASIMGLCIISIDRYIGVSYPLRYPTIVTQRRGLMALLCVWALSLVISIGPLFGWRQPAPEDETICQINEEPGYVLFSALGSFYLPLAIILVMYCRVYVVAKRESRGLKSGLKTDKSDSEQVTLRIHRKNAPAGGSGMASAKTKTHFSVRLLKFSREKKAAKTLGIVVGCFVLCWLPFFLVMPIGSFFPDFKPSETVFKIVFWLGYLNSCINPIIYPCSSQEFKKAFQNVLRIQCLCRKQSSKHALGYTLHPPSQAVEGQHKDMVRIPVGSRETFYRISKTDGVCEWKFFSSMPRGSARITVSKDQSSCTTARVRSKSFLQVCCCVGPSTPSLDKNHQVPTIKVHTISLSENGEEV

AT1 (h) = biological target: T6, AT1 (h) (Homo sapiens, UniProt P30556); experiment: CEREP panel; type: binding; settings: 10 µM
T6 construct: CEREP
T6 sequence (P30556 1-359): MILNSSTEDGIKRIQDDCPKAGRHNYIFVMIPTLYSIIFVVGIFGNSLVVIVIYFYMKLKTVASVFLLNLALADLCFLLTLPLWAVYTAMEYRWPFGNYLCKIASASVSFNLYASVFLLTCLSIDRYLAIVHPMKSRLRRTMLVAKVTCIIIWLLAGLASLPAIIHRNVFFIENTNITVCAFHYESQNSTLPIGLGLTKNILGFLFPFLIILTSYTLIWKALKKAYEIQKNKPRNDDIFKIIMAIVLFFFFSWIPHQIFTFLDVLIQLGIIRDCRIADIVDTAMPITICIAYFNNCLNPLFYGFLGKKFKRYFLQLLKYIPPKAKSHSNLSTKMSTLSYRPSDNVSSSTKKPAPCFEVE

beta 1 (h) = biological target: T7, beta 1 (h) (Homo sapiens, UniProt P08588); experiment: biochemical; type: binding; settings: 10 µM
T7 construct: CEREP

N muscle-type (h) = biological target: T8, N muscle-type (h) (Homo sapiens, UniProt P02708+P07510+P11230+Q07001); experiment: CEREP panel; type: binding; settings: 10 µM
T8 construct: CEREP (contract assay)

[4] = biological target: T9, norepinephrine transporter (h) (Homo sapiens, UniProt P23975); experiment: biochemical; type: binding; settings: 10 µM
T9 construct: CEREP (contract assay)

PCP = type: binding; settings: 10 µM
[5] = 1 μM
mouse P-gp = mouse P-gp (Mus musculus, UniProt P21447); settings: efflux ratio
[6] = logD distribution coefficient; settings: distribution coefficient

mouse P-gp, sequence (P21447 whole entry): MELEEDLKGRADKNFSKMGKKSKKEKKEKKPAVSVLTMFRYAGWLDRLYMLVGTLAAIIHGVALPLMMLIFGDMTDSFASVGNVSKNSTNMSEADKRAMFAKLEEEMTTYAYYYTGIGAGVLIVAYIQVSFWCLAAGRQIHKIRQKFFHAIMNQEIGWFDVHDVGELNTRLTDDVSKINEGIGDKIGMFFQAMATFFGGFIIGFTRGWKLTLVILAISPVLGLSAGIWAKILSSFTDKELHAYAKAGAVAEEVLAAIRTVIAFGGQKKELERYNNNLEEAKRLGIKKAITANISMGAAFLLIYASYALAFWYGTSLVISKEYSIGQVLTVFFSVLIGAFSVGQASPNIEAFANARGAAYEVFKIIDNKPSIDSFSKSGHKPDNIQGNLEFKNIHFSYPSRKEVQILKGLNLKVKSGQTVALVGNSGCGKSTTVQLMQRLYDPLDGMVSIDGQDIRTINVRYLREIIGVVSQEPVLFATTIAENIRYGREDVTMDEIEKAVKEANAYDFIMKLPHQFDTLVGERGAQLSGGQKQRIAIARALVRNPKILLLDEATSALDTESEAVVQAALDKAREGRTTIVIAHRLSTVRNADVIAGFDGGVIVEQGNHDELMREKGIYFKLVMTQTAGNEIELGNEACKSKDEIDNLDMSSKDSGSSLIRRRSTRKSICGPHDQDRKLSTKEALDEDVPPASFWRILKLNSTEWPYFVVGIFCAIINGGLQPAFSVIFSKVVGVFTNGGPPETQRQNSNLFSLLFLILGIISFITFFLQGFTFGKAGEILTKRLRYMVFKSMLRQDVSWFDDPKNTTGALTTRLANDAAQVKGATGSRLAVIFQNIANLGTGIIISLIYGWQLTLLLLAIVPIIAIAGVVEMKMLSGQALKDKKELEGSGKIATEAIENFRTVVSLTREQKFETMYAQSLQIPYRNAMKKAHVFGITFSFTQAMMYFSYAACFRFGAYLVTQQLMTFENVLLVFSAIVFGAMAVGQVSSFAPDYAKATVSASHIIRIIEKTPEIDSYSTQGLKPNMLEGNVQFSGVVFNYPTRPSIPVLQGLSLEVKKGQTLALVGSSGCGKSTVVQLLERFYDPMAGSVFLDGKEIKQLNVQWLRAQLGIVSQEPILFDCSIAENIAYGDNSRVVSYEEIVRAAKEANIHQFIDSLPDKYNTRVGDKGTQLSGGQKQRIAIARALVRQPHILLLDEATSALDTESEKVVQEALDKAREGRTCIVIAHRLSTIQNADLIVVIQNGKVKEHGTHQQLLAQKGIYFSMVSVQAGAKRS
T7 sequence (P08588 whole entry): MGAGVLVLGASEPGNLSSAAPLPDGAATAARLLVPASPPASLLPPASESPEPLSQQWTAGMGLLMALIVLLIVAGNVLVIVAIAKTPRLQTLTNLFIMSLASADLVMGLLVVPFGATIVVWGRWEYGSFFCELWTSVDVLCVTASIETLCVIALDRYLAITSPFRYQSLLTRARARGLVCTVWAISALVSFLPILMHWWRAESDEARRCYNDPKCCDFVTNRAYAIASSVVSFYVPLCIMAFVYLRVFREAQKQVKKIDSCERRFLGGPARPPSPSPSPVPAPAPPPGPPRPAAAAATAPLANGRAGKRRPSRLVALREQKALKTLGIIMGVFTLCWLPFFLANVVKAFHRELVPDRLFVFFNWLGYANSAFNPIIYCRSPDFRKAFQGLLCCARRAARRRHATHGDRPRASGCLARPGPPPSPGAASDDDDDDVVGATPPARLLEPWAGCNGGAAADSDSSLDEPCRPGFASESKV
T3 sequence (Q8R455 whole entry): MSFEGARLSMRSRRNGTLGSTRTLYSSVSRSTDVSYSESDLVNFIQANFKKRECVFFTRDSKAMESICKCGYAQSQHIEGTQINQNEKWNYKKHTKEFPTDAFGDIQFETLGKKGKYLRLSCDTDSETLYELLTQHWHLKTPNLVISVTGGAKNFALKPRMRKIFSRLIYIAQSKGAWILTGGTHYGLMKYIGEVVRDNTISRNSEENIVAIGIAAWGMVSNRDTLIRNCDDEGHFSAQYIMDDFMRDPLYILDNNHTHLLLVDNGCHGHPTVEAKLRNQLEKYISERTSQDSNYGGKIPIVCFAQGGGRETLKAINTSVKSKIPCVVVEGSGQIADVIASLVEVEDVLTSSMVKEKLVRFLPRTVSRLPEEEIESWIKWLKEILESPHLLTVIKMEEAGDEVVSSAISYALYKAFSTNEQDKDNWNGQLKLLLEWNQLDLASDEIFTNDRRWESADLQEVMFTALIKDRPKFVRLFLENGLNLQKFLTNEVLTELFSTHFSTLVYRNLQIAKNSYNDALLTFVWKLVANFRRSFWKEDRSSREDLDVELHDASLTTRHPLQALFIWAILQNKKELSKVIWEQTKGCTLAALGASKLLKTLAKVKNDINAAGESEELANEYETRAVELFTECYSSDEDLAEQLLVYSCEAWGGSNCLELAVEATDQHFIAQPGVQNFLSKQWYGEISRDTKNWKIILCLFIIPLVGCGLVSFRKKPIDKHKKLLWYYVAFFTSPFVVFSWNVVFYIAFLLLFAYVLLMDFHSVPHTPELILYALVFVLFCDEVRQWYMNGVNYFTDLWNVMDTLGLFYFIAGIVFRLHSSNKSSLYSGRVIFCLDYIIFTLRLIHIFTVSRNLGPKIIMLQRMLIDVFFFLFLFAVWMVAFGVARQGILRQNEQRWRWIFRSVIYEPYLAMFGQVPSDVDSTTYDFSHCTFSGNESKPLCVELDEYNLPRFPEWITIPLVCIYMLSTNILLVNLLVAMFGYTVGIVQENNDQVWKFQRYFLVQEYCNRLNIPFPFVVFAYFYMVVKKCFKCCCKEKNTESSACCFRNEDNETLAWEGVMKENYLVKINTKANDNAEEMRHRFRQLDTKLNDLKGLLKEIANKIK
T4 sequence (Q9ERZ8 whole entry): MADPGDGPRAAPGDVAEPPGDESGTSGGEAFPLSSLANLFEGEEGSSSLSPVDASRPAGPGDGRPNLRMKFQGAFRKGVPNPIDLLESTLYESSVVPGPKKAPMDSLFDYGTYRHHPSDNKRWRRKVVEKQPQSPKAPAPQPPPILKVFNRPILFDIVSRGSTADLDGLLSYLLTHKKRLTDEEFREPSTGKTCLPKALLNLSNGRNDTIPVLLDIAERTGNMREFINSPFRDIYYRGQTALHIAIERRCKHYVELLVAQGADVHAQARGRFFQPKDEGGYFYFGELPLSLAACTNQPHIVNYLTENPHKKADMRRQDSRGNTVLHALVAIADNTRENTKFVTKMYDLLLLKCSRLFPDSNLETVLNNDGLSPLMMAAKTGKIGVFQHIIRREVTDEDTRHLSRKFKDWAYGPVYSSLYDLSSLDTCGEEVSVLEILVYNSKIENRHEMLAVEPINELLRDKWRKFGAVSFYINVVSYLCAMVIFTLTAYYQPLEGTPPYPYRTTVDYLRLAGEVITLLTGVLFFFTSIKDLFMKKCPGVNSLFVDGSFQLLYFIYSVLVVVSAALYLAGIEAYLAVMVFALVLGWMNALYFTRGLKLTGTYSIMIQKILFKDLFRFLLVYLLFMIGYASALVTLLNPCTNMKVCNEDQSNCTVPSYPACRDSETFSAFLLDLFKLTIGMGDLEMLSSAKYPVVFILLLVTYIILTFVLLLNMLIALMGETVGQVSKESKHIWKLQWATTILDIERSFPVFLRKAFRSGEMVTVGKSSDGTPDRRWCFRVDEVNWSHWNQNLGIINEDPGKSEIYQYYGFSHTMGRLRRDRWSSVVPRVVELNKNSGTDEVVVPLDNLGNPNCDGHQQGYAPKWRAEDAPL
T9 sequence (P23975 whole entry): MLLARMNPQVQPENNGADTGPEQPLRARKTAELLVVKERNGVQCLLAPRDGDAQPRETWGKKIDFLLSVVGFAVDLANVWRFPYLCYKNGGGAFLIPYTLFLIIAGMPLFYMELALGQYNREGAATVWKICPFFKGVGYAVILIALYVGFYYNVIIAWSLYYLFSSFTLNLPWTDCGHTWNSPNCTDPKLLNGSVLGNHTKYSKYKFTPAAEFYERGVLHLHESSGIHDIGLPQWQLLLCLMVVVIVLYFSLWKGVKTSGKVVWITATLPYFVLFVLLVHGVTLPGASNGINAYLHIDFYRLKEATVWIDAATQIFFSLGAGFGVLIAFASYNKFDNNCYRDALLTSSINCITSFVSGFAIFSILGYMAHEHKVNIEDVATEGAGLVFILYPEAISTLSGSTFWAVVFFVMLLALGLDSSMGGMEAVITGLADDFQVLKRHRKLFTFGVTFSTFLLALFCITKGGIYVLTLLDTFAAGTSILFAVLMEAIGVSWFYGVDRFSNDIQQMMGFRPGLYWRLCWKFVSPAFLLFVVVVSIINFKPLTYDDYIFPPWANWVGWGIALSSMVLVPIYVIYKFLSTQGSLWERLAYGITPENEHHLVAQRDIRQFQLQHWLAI
T1 sequence (P21554 whole entry): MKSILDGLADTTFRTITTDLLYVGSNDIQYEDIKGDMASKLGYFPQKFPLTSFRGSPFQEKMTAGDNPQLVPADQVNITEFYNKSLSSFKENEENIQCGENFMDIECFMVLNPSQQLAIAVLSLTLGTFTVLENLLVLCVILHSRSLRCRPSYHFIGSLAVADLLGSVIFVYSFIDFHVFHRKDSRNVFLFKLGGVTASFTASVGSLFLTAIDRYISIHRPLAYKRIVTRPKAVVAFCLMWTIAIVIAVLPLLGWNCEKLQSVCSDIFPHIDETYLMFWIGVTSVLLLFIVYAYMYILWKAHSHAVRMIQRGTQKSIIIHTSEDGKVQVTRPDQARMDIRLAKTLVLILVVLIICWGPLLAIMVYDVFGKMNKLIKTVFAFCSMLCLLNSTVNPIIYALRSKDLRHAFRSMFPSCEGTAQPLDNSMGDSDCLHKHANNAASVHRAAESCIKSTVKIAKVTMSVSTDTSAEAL

| Compound | Emax ± SEM cAMP hCB1R (hCB1R [1]) | pEC50 ± SEM cAMP hCB1R (hCB1R [1]) | Emax ± SEM pERK hCB1R (hCB1R [2]) | pEC50 ± SEM pERK hCB1R (hCB1R [2]) | ABHD12 % inhibition (hABHD12) | AEA reuptake Efficacy (% inhibition) U937 cells [3] | IC50 [3] | IC50 (Rat recombinant TRPM8; vs icilin […]) | TRPV4 Efficacy (% ionomycin 4μM) (Rat recombinant TRPV4) | IC50 (Rat recombinant TRPV4) | % inhibition alpha 1A (h) (alpha 1A (h)) | % inhibition AT1 (h) (AT1 (h)) | % inhibition beta 1 (h) (beta 1 (h)) | % inhibition N muscle-type (h) (N muscle-type (h)) | % inhibition norepinephrine transporter (h) [4] | % inhibition PCP (PCP) | CL microsomes mouse [5] | P-gp (ER) mouse (mouse P-gp) | logD [6] | also measured |
| --- | --- | --- | --- | --- | --- | --- | --- | --- | --- | --- | --- | --- | --- | --- | --- | --- | --- | --- | --- | --- |
| CN1CCCC[C@H]1Cn1cc(C(=O)c2cc([N+](=O)[O-])ccc2I)c2ccccc21 [(S)-AM1241] | 16 ± 2 | < 5 | 17 ± 3 | < 4 | < 25% | 97% | 3.7 µM | > 50 µM | < 10% | 8.6 ± 0.3 µM | 75% | 1% | 14% | 38% | 26% | 2% | 640 µL/min/mg protein | 1.4 | 3.64 | – |
| COc1ccc(C(=O)c2c(C)n(CCN3CCOCC3)c3cc(I)ccc23)cc1 [AM630] | – | – | – | – | < 25% | – | > 10 µM | 4.3 ± 0.3 µM | < 10% | 3.2 ± 0.1 µM | 47% | 17% | 9% | 5% | 38% | 9% | 468 µL/min/mg protein | 1.3 | 3.82 | AEA reuptake % inhibition, effect at 10 µM, U937 cells ([3]; 10 µM (values marked *)): 23%; IC50 (Rat recombinant TRPM8; vs icilin 0.1μM (second value in cell)): 1.9 ± 0.1 µM |
| Cc1ccc2c(c1)Cc1c(C(=O)NN3CCCCC3)nn(-c3ccc(Cl)cc3Cl)c1-2 [Gp-1a] | 19 ± 5 | < 5 | 2 ± 3 | – | – | 64% | 1.26 µM | > 50 µM | < 10% | 2.2 ± 0.1 µM | 11% | 20% | 30% | – | 59% | -1% | 134 µL/min/mg protein | 1.1 | – | IC50 (hABHD12; read-out: ABHD12 IC50 (95% CI), full dose-response): 0.8 µM |
| CCCCCCC(C)(C)c1cc(OC)c(C2=C[C@H]3CC[C@]2(CO)C3(C)C)c(OC)c1 [HU910] | 28 ± 8 | < 5 | 12 ± 4 | < 4 | < 25% | 70% | 1.56 µM | > 100 µM | < 10% | > 100 µM | 1% | 37% | -4% | – | 58% | -25% | 464 µL/min/mg protein | 3.0 | – | – |
| CCCn1c(C)c(C(=O)c2cccc3ccccc23)c2ccccc21 [JWH015] | – | – | – | – | – | – | – | – | – | – | 16% | 21% | 7% | -12% | 39% | -19% | 989 µL/min/mg protein | 1.5 | – | – |
| CCCC(C)(C)c1ccc2c(c1)OC(C)(C)[C@@H]1CC=C(C)C[C@@H]21 [JWH133] | 37 ± 6 | < 5 | 10 ± 3 | < 4 | – | – | – | 48.4 ± 3.5 µM | 13.6% | > 100 µM | -5% | 7% | -7% | – | -9% | 2% | 63 µL/min/mg protein | 1.7 | > 3 | EC50 (Rat recombinant TRPV4; read-out: TRPV4 Potency EC50): 12 µM |

Source: publication PMC5216056 (Nature Communications, 2017)
